Data reported in US20210071138A1, “GAMETOGENESIS” (United Kingdom Research and Innovation, priority 2017, published 2021).

Key:
[1] = target: T1, PRC1 (Mus musculus, UniProt Q9CQJ4); assay: Western blot of H2Aub in mESCs cultured with PRC1 inhibitor; assay type: cell-based; conditions: 50 μM PRT4165, after 6h of culture, vs DMSO control (FIG. 15b)
T1 construct: endogenous in cells; host or cells: J1 (wild type) and Dnmt-TKO mouse embryonic stem cells
T1 sequence (Q9CQJ4 1-336): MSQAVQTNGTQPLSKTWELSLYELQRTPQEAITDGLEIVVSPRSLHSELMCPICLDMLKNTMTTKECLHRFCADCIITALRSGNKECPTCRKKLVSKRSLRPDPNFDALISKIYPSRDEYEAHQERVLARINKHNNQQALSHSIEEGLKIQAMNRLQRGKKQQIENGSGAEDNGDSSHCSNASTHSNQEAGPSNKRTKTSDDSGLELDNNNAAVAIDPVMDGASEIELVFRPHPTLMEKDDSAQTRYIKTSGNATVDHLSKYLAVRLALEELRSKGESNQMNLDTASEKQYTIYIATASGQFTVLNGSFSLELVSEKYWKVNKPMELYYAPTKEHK
Procedure: (§1) J1 (wild type), Dnmt-TKO^23 and Tet1-KO Dnmt-TKO mESCs were cultured in FCS/LIF medium without feeders on 0.1% gelatin. FCS/LIF medium consists of GMEM (Gibco) supplemented with 10% FCS, 0.1 mM MEM nonessential amino acids, 2 mM 1-glutamine, 1 mM sodium pyruvate, 0.1 mM 2-mercaptoethanol and mouse LIF (ESGRO, Millipore). For inhibitor experiments, mESCs were plated at a density of 1.5×10^4/cm^2 and left overnight. The next morning medium was exchanged for FCS/LIF medium containing either 50 μM PRC1 inhibitor PRT4165 (Ismail et al., 2013) or DMSO control and cells pelleted at the indicated time for analysis.
mESCs were lysed by sonication in RIPA buffer (150 mM sodium chloride, 1.0% Triton X-100, 0.5% sodium deoxychlorate, 0.1% sodium dodecylsulfate, 50 mM Tris pH 8.0) and protease-inhibitor cocktail (Roche, 11 697 498 001). Cell debris were removed by centrifugation at 14000 g 5 min 4° C. Protein was quantified using the BCA protein assay (Thermo, 23227). 2 μg (for H2A and H2Aub) or 20 μg (for Tet1) of each protein extract was loaded onto an 15% or 8% SDS polyacrylamide gel and transferred to a PVDF membrane after electrophoresis. Membranes were blocked with 5% BSA for 1 hour and then incubated overnight at 4° C. with primary antibodies at the following dilutions: anti-H2A antibody (Abcam, 18255) 1:2000; anti-ubiquityl H2A antibody (Cell Signalling 8240) 1:2000; anti-Tet1 antibody [N1] […]

[2] = test system: germline reprogramming responsive (GRR) genes; assay: RNA-Seq differential expression of GRR genes in mESCs; assay type: cell-based, mouse
Procedure: as §1, with “analysis. […]” for “analysis.”
For study of Tet1-KO and Tet1-WT PGCs, Illumina and Smart-seq adapters from the sequencing reads were first trimmed using Trimmomatic. […] RNA-Seq reads were aligned to the mouse genome (mm9, NCBI build 37) with Bowtie (version 0.12.8) and Tophat (version 2.0.2) with options -N 2 --b2-very-sensitive --b2-L 25. […] Read counts per annotated gene were computed using HTSeq (version 0.5.3p9) and expression level of each gene was quantified by computing the number of fragments detected per kilobase per million of reads (FPKM) using custom R script. […] For determining gene expression levels in wild type and Dnmt1-conditional knockout and matched wild type E10.5 PGCs, raw RNA-Seq reads were downloaded from GSE74938^24 and processed as above. […]

inhibition of PRC1-mediated H2A ubiquitination [1]: significant inhibition
Compound: O=C1C(=Cc2cccnc2)C(=O)c2ccccc21 [PRT4165]
number of GRR genes activated (of 45) upon dual inhibition of 5mC/PRC1 repression ([2]; Dnmt-TKO mESCs + 6h PRT4165 (50 μM) vs wild type + 6h DMSO (FIG. 4d, 15c)): 33 GRR genes
number of GRR genes activated (of 45) upon sole inhibition of PRC1 repression ([2]; wild type mESCs + 6h PRT4165 (50 μM) vs wild type + 6h DMSO (FIG. 4d, 15c)): 10 genes
